Test results reported in PubChem BioAssay AID256 (DTP/NCI, 2004).
Where “and” joins values, the source holds several entries; their conditions need not be identical. Identical values can stand only once. Inconclusive results and toxic doses are left out. How the source made its calls: active means survival T/C of 150% or more; inactive means T/C below 125% in these data.

System: CD2F1 mice, L1210 leukemia ip, survival T/C
Assay: NCI In Vivo Anticancer Drug Screen. Data for tumor model L1210 Leukemia (intraperitoneal) in CD2F1 (CDF1) mice
Conditions: higher = longer survival
Outline: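 Mice carrying a transplanted tumor received test compound or vehicle alone. The value is the measurement in the treated group divided by that in the vehicle-treated control group.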

[1] = endpoint: mean survival time, dose: 100.0 mg/kg/injection, schedule: Q01DX009 (ip), vehicle: saline
[2] = endpoint: mean survival time, dose: 200.0 mg/kg/injection, schedule: Q01DX009 (ip), vehicle: saline
[3] = endpoint: mean survival time, dose: 400.0 mg/kg/injection, schedule: Q01DX009 (ip), vehicle: saline

Measured: T/C

O=[N+]([O-])/C=C/c1ccccc1
inactive: endpoint: mean survival time, dose: 20.0 mg/kg/injection, schedule: Q01DX009 (ip), vehicle: saline with Tween-80 106 % of control | endpoint: mean survival time, dose: 20.0 mg/kg/injection, schedule: Q04DX003 (ip), vehicle: saline with Tween-80 102 % of control | endpoint: mean survival time, dose: 40.0 mg/kg/injection, schedule: Q04DX003 (ip), vehicle: saline with Tween-80 96 % of control | endpoint: mean survival time, dose: 80.0 mg/kg/injection, schedule: Q04DX003 (ip), vehicle: saline with Tween-80 94 % of control

CCCN(CCC)C(=O)C(=O)OCC
inactive: endpoint: mean survival time, dose: 6.25 mg/kg/injection, schedule: Q01DX009 (ip), vehicle: saline 90 % of control | endpoint: mean survival time, dose: 12.5 mg/kg/injection, schedule: Q01DX009 (ip), vehicle: saline 96 % of control | endpoint: mean survival time, dose: 25.0 mg/kg/injection, schedule: Q01DX009 (ip), vehicle: saline 93 % of control

OC1COC(c2cnn(-c3ccccc3)n2)C1O (stereo not drawn)
inactive: endpoint: median survival time, dose: 12.5 mg/kg/injection, schedule: Q01DX005 (ip), vehicle: water 105 % of control and 110 % of control | endpoint: median survival time, dose: 25.0 mg/kg/injection, schedule: Q01DX005 (ip), vehicle: water 103 % of control | endpoint: median survival time, dose: 50.0 mg/kg/injection, schedule: Q01DX005 (ip), vehicle: water 105 % of control and 103 % of control | endpoint: median survival time, dose: 100.0 mg/kg/injection, schedule: Q01DX005 (ip), vehicle: water 103 % of control and 104 % of control | endpoint: median survival time, dose: 200.0 mg/kg/injection, schedule: Q01DX005 (ip), vehicle: water 100 % of control and 103 % of control | endpoint: median survival time, dose: 400.0 mg/kg/injection, schedule: Q01DX005 (ip), vehicle: water 107 % of control

NS(N)(=O)=O
inactive: [1] 105 % of control | [2] 100 % of control | [3] 97 % of control

CC(=O)OCC1OC(OC(C)=O)C(NC(=O)NCCI)C(OC(C)=O)C1OC(C)=O (stereo not drawn)
inactive: endpoint: mean survival time, dose: 12.5 mg/kg/injection, schedule: Q01DX009 (ip), vehicle: other 93 % of control | endpoint: mean survival time, dose: 25.0 mg/kg/injection, schedule: Q01DX009 (ip), vehicle: other 95 % of control | endpoint: mean survival time, dose: 50.0 mg/kg/injection, schedule: Q01DX009 (ip), vehicle: other 92 % of control | endpoint: mean survival time, dose: 100.0 mg/kg/injection, schedule: Q01DX009 (ip), vehicle: other 88 % of control | endpoint: mean survival time, dose: 200.0 mg/kg/injection, schedule: Q01DX009 (ip), vehicle: other 98 % of control

CCCCCCCCCCCCCC(=O)N1CCOCC1
inactive: endpoint: mean survival time, dose: 100.0 mg/kg/injection, schedule: Q01DX009 (ip), vehicle: saline with Tween-80 96 % of control | endpoint: mean survival time, dose: 100.0 mg/kg/injection, schedule: Q04DX003 (ip), vehicle: saline with Tween-80 97 % of control | endpoint: mean survival time, dose: 200.0 mg/kg/injection, schedule: Q01DX009 (ip), vehicle: saline with Tween-80 96 % of control | endpoint: mean survival time, dose: 200.0 mg/kg/injection, schedule: Q04DX003 (ip), vehicle: saline with Tween-80 95 % of control | endpoint: mean survival time, dose: 400.0 mg/kg/injection, schedule: Q01DX009 (ip), vehicle: saline with Tween-80 100 % of control | endpoint: mean survival time, dose: 400.0 mg/kg/injection, schedule: Q04DX003 (ip), vehicle: saline with Tween-80 97 % of control

NC(Cc1ccc([N+](=O)[O-])cc1)C(=O)O (stereo not drawn)
inactive: [1] 96 % of control | endpoint: mean survival time, dose: 100.0 mg/kg/injection, schedule: Q04DX003 (ip), vehicle: saline 97 % of control | [2] 98 % of control | endpoint: mean survival time, dose: 200.0 mg/kg/injection, schedule: Q04DX003 (ip), vehicle: saline 100 % of control | [3] 94 % of control | endpoint: mean survival time, dose: 400.0 mg/kg/injection, schedule: Q04DX003 (ip), vehicle: saline 103 % of control
